# Data from article PMC10987480, “Biological and mutational analyses of CXCR4–antagonist interactions and design of new antagonistic analogs” (Bioscience Reports, 2023).
# Like-named read-outs stand apart in the source and are kept apart here. Positions of bridges follow the written chain, without caps; N, C: chain ends. Non-standard residues stand in square brackets, D forms with d. Residues, ends and D or L forms follow the SMILES beside them. 2Nal = N[C@@H](Cc1ccc2ccccc2c1)C(=O)O; d2Nal = N[C@H](Cc1ccc2ccccc2c1)C(=O)O; Cit = NC(=O)NCCC[C@H](N)C(=O)O
# Tests used:
# [1] = molecular target: T1, CXCR4 (Homo sapiens, UniProt P61073); experiment: SDF-1α-induced cell migration assay in SupT1 cells (transwell); assay type: cell-based; parameters: host or cells: SupT1 cells; details: 2 nM SDF-1α, 30 min pre-incubation, 3 h migration; for inhibition at 40 µM: SUP-T1, at 40 μM
# T1 sequence (P61073 whole entry): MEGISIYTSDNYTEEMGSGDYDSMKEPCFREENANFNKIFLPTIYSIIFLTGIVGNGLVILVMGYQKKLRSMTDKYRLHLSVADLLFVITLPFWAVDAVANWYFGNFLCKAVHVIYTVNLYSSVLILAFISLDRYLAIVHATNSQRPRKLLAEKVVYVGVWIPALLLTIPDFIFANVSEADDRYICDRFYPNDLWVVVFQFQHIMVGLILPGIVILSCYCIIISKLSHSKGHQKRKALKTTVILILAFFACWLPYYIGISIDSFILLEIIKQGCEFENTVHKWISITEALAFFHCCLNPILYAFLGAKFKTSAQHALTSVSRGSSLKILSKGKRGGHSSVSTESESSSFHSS
# Procedure: (§1) Figure 2 The inhibitory effect of the antagonists on SDF-1α-induced cell chemotaxis and calcium mobilization in SupT1 cells The antagonists and concentrations used were labeled in each lane. (A) The inhibition of cell migration by the noted antagonists. SupT1 cells pre-treated with or without CXCR4 antagonists were seeded in the upper well and cell migrated by 2 nM SDF-1α. Migrated cells without SDF-1α were used as a negative (0%) and migrated cell induced by SDF-1α as a positive control (100%). […] SupT1 cells were treated with or without CXCR4 antagonists and activated by 50 nM SDF-1α. To directly compare the inhibitory effect of the antagonists on calcium mobilization, the vehicle background and baseline were removed using GraphPad and Origin. The data were averages of at least three independent experiments.
# SupT1 cells (2 × 10^6 cells per well in 75 μl) were collected and washed using assay buffer (RPMI 1640 supplemented with 0.5% BSA) and incubated with various concentrations of tested compounds for 30 min in the upper well of the transwell-96 well plates with 5.0 µm pore polycarbonate membrane insert (Corning, U.S.A.). Then, 200 μl assay buffer containing 2 nM SDF-1α was added to the lower well and cells were allowed to migrate for 3 h. Migrated cells were measured using celltiter-96 reagent.
# [2] = molecular target: T1, CXCR4; experiment: Competitive CXCR4 binding assay (12G5 antibody probe), wild-type CXCR4 transfected CHO cells; parameters: expressed in transfected cells
# Procedure: The CXCR4-specific antibody, 12G5 was used as a probe for the competitive CXCR4 binding assay to evaluate the binding activity of CXCR4 antagonists.
# Figure 1 Competitive CXCR4 binding curves of eleven CXCR4 antagonists The CXCR4 transfected CHO cells were incubated with different concentrations of antagonists and 250 ng/ml 12G5 antibody. The CXCR4-binding 12G5 antibody was recognized by FITC-conjugated anti-IgG second antibody. The cells treated with only second antibody were used as a negative control (0%) while cells treated with both 12G5 antibody and second antibody were used as a positive control (100%). Cells treated with CXCR4 antagonists were calculated in percentage relative to the positive and negative controls. The data were averages of at least three independent experiments and shown as mean ± standard error of the mean (S.E.M.).
# (§2) The procedure for the CXCR4 competitive binding experiments was published previously. Briefly, CXCR4 antibody 12G5 (250 ng/ml) was incubated with 5 × 10^5 cells and varying concentrations of unlabeled compounds in a final volume of 100 μl of assay buffer (PBS with 0.5% BSA and 0.05% NaN3) in 96-well plates for 40 min on ice, after being washed with assay buffer once. The cells were incubated with FITC-conjugated second antibody IgG for 30 min on ice, then washed with assay buffer three times. The fluorescence intensity was measured for excitation at 485 nm and emission at 535 nm using multimode plate reader (PerkinElmer). The IC50 values were calculated using graphpad Prism 7. Experiments were performed at least three times.
# [3] = tested on: CXCR4; details: read-out: Competitive binding IC50; cited from earlier work
# Excerpt: (§3) To understand the receptor–ligand recognition mechanism involving CXCR4 and its antagonists, here in this study we conducted a series of comparative analyses of the biological activities and CXCR4 binding sites of eleven known CXCR4 antagonists, including the three mentioned above, using cell-based bioassays, CXCR4 site-directed mutagenesis and computer-aided molecular modeling. These antagonists studied here were chosen from different representative structural types including both D-peptides (i.e., HC4319, DV1, DV1 dimer, and DV3) and a representative counterpart L-peptide (i.e., V1) derived ...
# [4] = tested on: X4-tropic HIV; details: read-out: IC50, block of X4-tropic HIV infection via CXCR4; cited from earlier work
# Excerpt: as §3
# [5] = molecular target: T1, CXCR4; experiment: SDF-1α-induced calcium mobilization assay in SupT1 cells (Fluo-4); assay type: cell-based; parameters: host or cells: SupT1 cells; details: for inhibition at 10 µM: SUP-T1, at 10 μM, 50 nM SDF-1α, read-out: Inhibition of the calcium signal
# Procedure: as §1
# SupT1 cells were collected and washed using HHBS buffer (Hanks’ Balanced Salt solution supplemented with 20 mM HEPES) and incubated with 1 mM probenecid (Energy Chemical, China) and 4 μM Fluo-4 (AAT bioquest, U.S.A.) for 37°C for 30 min with vortex every 5 min. After being washed with HHBS, cells were suspended in PBS at 2 × 10^6/ml and seeded 200 μl cells and various concentrations of compounds per well in 96-well plate. Following 50 nM SDF-1α was added to each well, the fluorescence intensity was measured (Ex/Em = 496/516 nm) using EnSpire® multimode plate reader (PerkinElmer, U.S.A.).
# [6] = tested on: CXCR4 mutants; experiment: Mutational analysis of HM70116 binding to CXCR4 mutants compared with DV3; details: mutants F87A, W94A, Y116A, T117A, D171A, W195A, Y255A, D262N, H281A; three independent experiments with duplicate values
# Excerpt: Figure 10 The mutational analysis and molecular modeling of HM70116 interaction with CXCR4 (A) Mutational analysis of HM70116 interaction with CXCR4 binding pocket. The data was averaged from three independent experiments with duplicate values. The data were shown as mean ± standard error of the mean (S.E.M.). (B) MD simulation of HM70116-CXCR4 complex. (C) Binding mode of the N-terminus of vMIP-II in the CXCR4-binding pocket.
# as §2
# [7] = molecular target: T1, CXCR4; experiment: CXCR4-mediated internalization assay, CHO cells expressing CXCR4-EGFP (confocal); assay type: cell-based; parameters: expressed in transfected cells; details: at 100 and 10 μM; SDF-1α-induced
# Procedure: Figure 3 The inhibitory effect of the antagonists on CXCR4 internalization CHO cells expressed CXCR4-EGFP conjugates were seeded in 96-well plate with glass bottom. Untreated cells were used as a control. Cells were pre-treated with or without CXCR4 antagonists and internalized with 50 nM SDF-1α (scale bar: 5 μm). The concentrations of the antagonists used were the same as those for the calcium mobilization assay shown above. The data shown were representative of three independent experiments.
# CXCR4 and EGFP were amplified using a primer shown in Supplementary Table S1. The pcDNA3 vector was digested by restriction-enzyme EcoR1 and Apa1. CXCR4 was digested by restriction-enzyme EcoR1 and Xba1. EGFP was digested by restriction-enzyme Xba1 and Apa1. CXCR4–EGFP conjugate was constructed by ligation of three DNA fragments using T4 ligase. The vector containing CXCR4 ligated EGFP at the C-terminus was transfected and expressed in CHO cells in 100 μl DMEM medium supplemented with 2% FBS at 1 × 10^5/ml which was seeded in 96-well black plate glass bottom and incubated at 37°C overnight. Following incubation with tested compounds for 10 min, 50 nM of SDF-1α was added to each well and the internalized CXCR4 was observed using a confocal microscopy (Zeiss LSM880).
# [8] = CXCR4 transfected CHO cells, 250 ng/ml 12G5, 40 min on ice, FITC second antibody, mean ± S.E.M. of at least three independent experiments, SEM, read-out: IC50 (nM), inhibition of 12G5 binding to CXCR4
structure (smiles),measurement,setting,value
N=C(N)NCCC[C@H](NC(=O)[C@@H]1CSSC[C@H](NC(=O)[C@H](Cc2ccc3ccccc3c2)NC(=O)[C@H](CCCNC(=N)N)NC(=O)[C@@H](N)CCCNC(=N)N)C(=O)N[C@@H](Cc2ccc(O)cc2)C(=O)N[C@@H](CCC(N)=O)C(=O)N[C@@H](CCCCN)C(=O)N2CCC[C@@H]2C(=O)N2CCC[C@H]2C(=O)N[C@@H](Cc2ccc(O)cc2)C(=O)N[C@@H](CCCNC(=N)N)C(=O)N[C@@H](CCCNC(N)=O)C(=O)N1)C(=O)NCC(=O)N1CCC[C@@H]1C(=O)O [CVX15] (H-RR[2Nal]CYQK[dP]PYR[Cit]CRG[dP]-OH; disulfide 4-13),inhibition at 0.02 µM,"[1]; SUP-T1, at 20 nM",65%
same,IC50,[2]; [8],7.8 ± 2.2 nM
CC1(C)CN2C(CSC(=NC3CCCCC3)NC3CCCCC3)=CSC2=N1 [IT1t],IC50,[3],[…]
same,IC50,[4],7 nM
CC(C)C[C@@H](N)C(=O)NCC(=O)N[C@H](C)C(=O)N[C@H](CO)C(=O)N[C@H](Cc1c[nH]c2ccccc12)C(=O)N[C@H](Cc1c[nH]cn1)C(=O)N[C@H](CCCNC(=N)N)C(=O)N1CCC[C@@H]1C(=O)N[C@H](CC(=O)O)C(=O)N[C@H](CCCCN)C(=O)O [DV3] (H-[dL]G[dA][dS][dW][dH][dR][dP][dD][dK]-OH),inhibition at 40 µM,[1],13%
same,inhibition at 10 µM,[5],~55%
CC(C)C[C@@H](N)C(=O)NCC(=O)N[C@H](C)C(=O)N[C@H](CO)C(=O)N[C@H](Cc1c[nH]c2ccccc12)C(=O)N[C@H](Cc1c[nH]cn1)C(=O)N[C@H](CCCNC(=N)N)C(=O)N1CCC[C@@H]1C(=O)N[C@H](CC(=O)O)C(=O)N[C@H](CCCCN)C(=O)N[C@H](CS)C(=O)N[C@H](CS)C(=O)N[C@H](CC(C)C)C(=O)NCC(=O)N[C@H](Cc1ccc(O)cc1)C(=O)N[C@H](CCC(N)=O)C(=O)N[C@H](CCCCN)C(=O)N[C@H](CCCNC(=N)N)C(=O)N1CCC[C@@H]1C(=O)N[C@H](CC(C)C)C(=O)N1CCC[C@@H]1C(N)=O [DV1] (H-[dL]G[dA][dS][dW][dH][dR][dP][dD][dK][dC][dC][dL]G[dY][dQ][dK][dR][dP][dL][dP]-NH2),inhibition at 40 µM,[1],78%
same,inhibition at 10 µM,[5],86%
CC(C)C[C@@H](N)C(=O)NCC(=O)N[C@H](C)C(=O)N[C@H](CO)C(=O)N[C@H](Cc1c[nH]c2ccccc12)C(=O)N[C@H](Cc1c[nH]cn1)C(=O)N[C@H](CCCNC(=N)N)C(=O)N1CCC[C@@H]1C(=O)N[C@H](CC(=O)O)C(=O)N[C@H](CCCCN)C(=O)N[C@H](CCCNC(=N)N)C(=O)N[C@H](CCCNC(=N)N)C(=O)O [HM12] (H-[dL]G[dA][dS][dW][dH][dR][dP][dD][dK][dR][dR]-OH),IC50,[2]; SEM,544 ± 75 nM
CC(C)C[C@@H](NC(=O)[C@@H](CCCNC(=N)N)NC(=O)[C@H](N)CCCCN)C(=O)NCC(=O)N[C@H](C)C(=O)N[C@H](CO)C(=O)N[C@H](Cc1c[nH]c2ccccc12)C(=O)N[C@H](Cc1c[nH]cn1)C(=O)N[C@H](CCCNC(=N)N)C(=O)N1CCC[C@@H]1C(=O)N[C@H](CC(=O)O)C(=O)N[C@H](CCCCN)C(=O)O [HM60303] (H-[dK][dR][dL]G[dA][dS][dW][dH][dR][dP][dD][dK]-OH; N-terminus and C-terminus assumed),IC50,[2],> 50000 nM
CC(C)C[C@@H](N)C(=O)NCC(=O)N[C@H](C)C(=O)N[C@H](CO)C(=O)N[C@H](Cc1c[nH]c2ccccc12)C(=O)N[C@H](Cc1c[nH]cn1)C(=O)N[C@H](CCCNC(=N)N)C(=O)N1CCC[C@@H]1C(=O)N[C@H](Cc1ccc2ccccc2c1)C(=O)N[C@H](CCCNC(=N)N)C(=O)N[C@H](CCCNC(=N)N)C(=O)O [HM70116] (H-[dL]G[dA][dS][dW][dH][dR][dP][d2Nal][dR][dR]-OH; N-terminus and C-terminus assumed),Reduction in binding to CXCR4 mutants relative to DV3 (in words),[6],greater than DV3
same,Inhibition of intracellular calcium mobilization (in words),"[5]; 1 μM pretreatment, SDF-1α-induced",potently inhibited
same,Inhibition of CXCR4 internalization (in words),[7],effectively prevented CXCR4 internalization
CC(C)C[C@H](NC(=O)[C@H](CS)NC(=O)[C@H](CS)NC(=O)[C@H](CCCCN)NC(=O)[C@H](CC(=O)O)NC(=O)[C@@H]1CCCN1C(=O)[C@H](CCCNC(=N)N)NC(=O)[C@H](Cc1c[nH]cn1)NC(=O)[C@H](Cc1c[nH]c2ccccc12)NC(=O)[C@H](CO)NC(=O)[C@H](C)NC(=O)CNC(=O)[C@@H](N)CC(C)C)C(=O)NCC(=O)N[C@@H](Cc1ccc(O)cc1)C(=O)N[C@@H](CCC(N)=O)C(=O)N[C@@H](CCCCN)C(=O)N[C@@H](CCCNC(=N)N)C(=O)N1CCC[C@H]1C(=O)N[C@@H](CC(C)C)C(=O)N1CCC[C@H]1C(=O)O [V1] (H-LGASWHRPDKCCLGYQKRPLP-OH),inhibition at 40 µM,[1],68%
same,IC50,[2]; [8],2630 ± 891 nM
CC(C)C[C@@H](N)C(=O)NCC(=O)N[C@H](C)C(=O)N[C@H](CO)C(=O)N[C@H](Cc1c[nH]c2ccccc12)C(=O)N[C@H](Cc1c[nH]cn1)C(=O)N[C@H](CCCNC(=N)N)C(=O)N1CCC[C@@H]1C(=O)N[C@H](CC(=O)O)C(=O)N[C@H](CCCCN)C(=O)N[C@H](CCCNC(=N)N)C(=O)O [HM60323] (H-[dL]G[dA][dS][dW][dH][dR][dP][dD][dK][dR]-OH),IC50,[2]; SEM,707 ± 143 nM
